Test results reported in PMC8844822, “SARM1 is a multi-functional NAD(P)ase with prominent base exchange activity, all regulated bymultiple physiologically relevant NAD metabolites” (iScience, 2022).

What was measured:
hCD38 [1] = biological target: T1, hCD38 (Homo sapiens, UniProt P28907); assay: NAD(P)ase activity by HPLC (kinetics, substrates, metal ions); assay type: biochemical; settings: for use as substrate (consumption rate): dinucleotide 250 μM, 2–6 h; for effect of metal ion on activity: metal ions 1 mM
T1 construct: a soluble fragment Val43-Ile300 with 6x-His tag at C terminus; 6xHis (C); purchased R&D Systems
T1 sequence (P28907 43-300): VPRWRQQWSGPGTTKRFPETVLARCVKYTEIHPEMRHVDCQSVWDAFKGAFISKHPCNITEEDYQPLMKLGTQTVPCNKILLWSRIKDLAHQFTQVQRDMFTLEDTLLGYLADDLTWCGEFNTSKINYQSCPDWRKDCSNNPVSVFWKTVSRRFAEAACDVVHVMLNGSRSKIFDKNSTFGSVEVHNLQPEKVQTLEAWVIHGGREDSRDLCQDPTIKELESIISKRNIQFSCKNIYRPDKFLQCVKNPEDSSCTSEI
Procedure: (§1) hSARM1 species were routinely assayed by the NAD/NADH-Glo^TM Assay (Promega) while both Aplysia cyclase and CD38 were assayed by fluorometry using ϵNAD ([Orsomando et al., 2000]). […] Other reagents used in addition to, or in place of those above are detailed in text or in figure legends, for example metal ions, free bases, dinucleotide analogues, mononucleotides, and ribosides. Assays were all carried out at 25°C except for temperature studies. Reactions were stopped by HClO4/K2CO3 and analysed by C18-HPLC as reported ([Mori et al., 2014]). Only the acid labile NADH and NADPH were treated with 1 N NaOH and neutralized using 1:1 vol of 1.73 M KH2CO3 while the highly hydrophobic metabolites vacor, VAD, VMN and VR, were analysed by a modified C18-HPLC method ([Buonvicino et al., 2018]). Reaction products were quantified from peak areas (see Figure 2A) based on coelution with standards (except for cyclic products from NAD analogues that were not available and were attributed based on UV-spectra and retention times as predicted). Rates were calculated as follows. Hydrolysis and cyclization were measured from product generation from the respective individual dinucleotide substrate used, e.g., free and cyclic ADP-ribosyl moieties from NAD (Figure 1B). A basal value for hydrolysis/cyclization was taken as sum of these latter two products. In addition to that value, base exchange or transglycosidation was calculated from the expected dinucleotide analog formed in the presence of the corresponding free base, e.g., AcPyrAD from AcPyr and NAD.
(§2) The kinetic parameters were calculated from initial rates obtained from replicates via best-fitting analysis using the following Equation 1 for CD38 and Aplysia cyclase, or Equation 2 for hSARM1 SAM-TIR, or Equation 3 for hSARM1 full length(Equation 1) V =Vmax[S]/Km+[S] […] In that case, the resulting single curves were fit to Equation 3 as above to evaluate any competition between NMN and the substrate used (see Table 1).

hSARM1 full length [2] = biological target: T2, hSARM1 full length (Homo sapiens, UniProt Q6SZW1); assay: as above; assay type: biochemical; settings: hSARM1; for use as substrate (consumption rate): dinucleotide 250 μM, 25°C, 2–6 h; for effect of metal ion on activity: metal ions 1 mM
T2 construct: Human recombinant SARM1 full length proteins (wild-type and E642A mutant); made in house
T2 sequence (Q6SZW1 28-724): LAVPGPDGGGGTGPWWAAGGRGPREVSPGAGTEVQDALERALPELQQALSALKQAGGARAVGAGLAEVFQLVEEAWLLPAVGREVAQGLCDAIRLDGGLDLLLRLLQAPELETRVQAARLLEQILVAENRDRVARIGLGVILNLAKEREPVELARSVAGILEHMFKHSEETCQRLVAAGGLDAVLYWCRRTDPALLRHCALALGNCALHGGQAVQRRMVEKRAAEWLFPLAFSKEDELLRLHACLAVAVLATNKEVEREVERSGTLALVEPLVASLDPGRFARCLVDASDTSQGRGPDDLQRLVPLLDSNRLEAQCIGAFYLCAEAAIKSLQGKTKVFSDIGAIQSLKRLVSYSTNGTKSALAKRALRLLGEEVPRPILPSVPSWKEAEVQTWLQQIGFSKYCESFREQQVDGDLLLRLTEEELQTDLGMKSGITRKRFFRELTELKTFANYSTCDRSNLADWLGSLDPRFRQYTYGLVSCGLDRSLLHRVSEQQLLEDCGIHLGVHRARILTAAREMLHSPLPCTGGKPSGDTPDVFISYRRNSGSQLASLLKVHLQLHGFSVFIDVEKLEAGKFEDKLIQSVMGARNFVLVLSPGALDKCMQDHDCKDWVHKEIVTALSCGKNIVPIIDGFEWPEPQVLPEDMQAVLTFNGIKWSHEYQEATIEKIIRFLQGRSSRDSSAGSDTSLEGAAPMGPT
Procedure: as §1, §2

[3] = biological target: T3, Aplysia californica ADP ribosyl cyclase (Aplysia californica, UniProt P29241); settings: for use as substrate (consumption rate): dinucleotide 250 μM, 25°C, 2–6 h; for effect of metal ion on activity: metal ions 1 mM
T3 sequence (P29241 25-282): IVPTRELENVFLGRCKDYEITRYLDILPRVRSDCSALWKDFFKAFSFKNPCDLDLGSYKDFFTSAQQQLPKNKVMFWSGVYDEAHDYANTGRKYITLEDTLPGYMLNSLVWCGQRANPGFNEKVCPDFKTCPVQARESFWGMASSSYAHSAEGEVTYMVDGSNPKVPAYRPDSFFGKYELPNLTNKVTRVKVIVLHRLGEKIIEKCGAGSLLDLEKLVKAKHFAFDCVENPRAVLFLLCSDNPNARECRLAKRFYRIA
Procedure: as §1, §2

hSARM1 full length [4] = biological target: T2, hSARM1 full length; assay: Base exchange reactions at neutral pH (HPLC); assay type: biochemical; settings: for increase of all hSARM1 activities by trigger (plateau): hSARM1 full length, NMN 0.2 mM or VMN 0.05 mM, NAD or NADP 250 μM with or without bases
Procedure: (§3) Multiple time stops from individual assays as above were analyzed for linearity, then extents of hydrolysis (white bars), cyclization (red bars), or base exchange (black bars) were calculated from each corresponding product as shown in Figure 1B and STAR methods. […] See also Figures S3–S5, and Table S1
as §1

hCD38 [5] = biological target: T1, hCD38; assay: Base exchange reactions at neutral pH (HPLC); assay type: biochemical; settings: NADP […] alone or + AcPyr 2 mM / Vacor 0.5 mM / Na 2 mM
Procedure: as §3, §1

[6] = hSARM1 full length +NMN 0.2 mM, NAD […]
[7] = hSARM1 full length +NMN 0.2 mM, NADP […]
[8] = hSARM1 full length +VMN 0.05 mM, NAD […]
[9] = hSARM1 full length +VMN 0.05 mM, NADP […]

For `NC(=O)C1=CN([C@@H]2O[C@H](COP(=O)(O)OP(=O)(O)OC[C@H]3O[C@@H](n4cnc5c(N)ncnc54)[C@H](O)[C@@H]3O)[C@@H](O)[C@H]2O)C=CC1` [NADH], the “use as substrate (consumption rate)” value (hCD38 [1]; hCD38, 25°C) was “negligible usage”, the “use as substrate (consumption rate)” value (hSARM1 full length [2]) was “negligible usage” and the “use as substrate (consumption rate)” value [3] was “negligible usage”.

For `NC(=O)C1=CN([C@@H]2O[C@H](COP(=O)(O)OP(=O)(O)OC[C@H]3O[C@@H](n4cnc5c(N)ncnc54)[C@H](OP(=O)(O)O)[C@@H]3O)[C@@H](O)[C@H]2O)C=CC1` [NADPH], the “use as substrate (consumption rate)” value (hCD38 [1]; hCD38, 25°C) was “negligible usage”, the “use as substrate (consumption rate)” value (hSARM1 full length [2]) was “negligible usage” and the “use as substrate (consumption rate)” value [3] was “negligible usage”.

With `NC(=O)c1ccc[n+]([C@@H]2O[C@H](COP(=O)([O-])OP(=O)(O)OC[C@H]3O[C@@H](n4cnc5c(=O)[nH]c(N)nc54)[C@H](O)[C@@H]3O)[C@@H](O)[C@H]2O)c1` [NGD, nicotinamide guanine dinucleotide] the “cyclization, share of total substrate consumption” value (hCD38 [1]; CD38) was roughly 80%.

For `NC(=O)c1ccc[n+]([C@@H]2O[C@H](COP(=O)([O-])O)[C@@H](O)[C@H]2O)c1` [NMN, nicotinamide mononucleotide], the “cyclization, share of products” value (hSARM1 full length [4]; [6]) was 9.51%, the “hydrolysis, share of products” value (hSARM1 full length [4]; [6]) was 90.49% and the rate (hSARM1 full length [4]; hSARM1 full length +NMN 0.2 mM, NAD […] alone or + free base) was 187.9 ±26.9 mU/mg. The “rate (relative fold)” value (hSARM1 full length [4]; hSARM1 full length +NMN 0.2 mM, NAD […], relative to NAD alone without trigger) was 8.61±1.23 fold, the “cyclization, share of products” value (hSARM1 full length [4]; [7]) was ~ 0.05% and the “hydrolysis, share of products” value (hSARM1 full length [4]; [7]) was 99.95%. The rate (hSARM1 full length [4]; hSARM1 full length +NMN 0.2 mM, NADP […] alone or + free base) was 117.3 ±4.72 mU/mg, the “rate (relative fold)” value (hSARM1 full length [4]; hSARM1 full length +NMN 0.2 mM, NADP […], relative to NADP alone without trigger) was 7.98 ±0.321 fold and the “increase of all hSARM1 activities by trigger (plateau)” value (hSARM1 full length [4]) was 8- to 10 fold.

`Nc1ncnc2c1ncn2[C@@H]1O[C@H](COP(=O)(O)OP(=O)(O)OC[C@H]2O[C@@H]([n+]3cccc(C(=O)O)c3)[C@H](O)[C@@H]2O)[C@@H](O)[C@H]1O` [NaAD, nicotinic acid adenine dinucleotide] was tested, and the “use as substrate (consumption rate)” value (hCD38 [1]; hCD38, 25°C) was “negligible usage”, the “use as substrate (consumption rate)” value (hSARM1 full length [2]) was “negligible usage” and the “use as substrate (consumption rate)” value [3] was “negligible usage”.

In the case of `Nc1ncnc2c1ncn2[C@@H]1O[C@H](COP(=O)(O)OP(=O)([O-])OC[C@H]2O[C@@H]([n+]3cccc(CNC(=O)Nc4ccc([N+](=O)[O-])cc4)c3)[C@H](O)[C@@H]2O)[C@@H](O)[C@H]1O` [VAD, vacor adenine dinucleotide], the “use as substrate (consumption rate)” value (hCD38 [1]; hCD38, 25°C) is reported as “no activity”, the “use as substrate (consumption rate)” value (hSARM1 full length [2]) is reported as “no activity” and the “use as substrate (consumption rate)” value [3] is reported as “no activity”.

For `O=C(NCc1ccc[n+]([C@@H]2O[C@H](COP(=O)(O)O)[C@@H](O)[C@H]2O)c1)Nc1ccc([N+](=O)[O-])cc1` [VMN, vacor mononucleotide], the “cyclization, share of products” value (hSARM1 full length [4]; [8]) was 8.79%, the “hydrolysis, share of products” value (hSARM1 full length [4]; [8]) was 91.21% and the rate (hSARM1 full length [4]; hSARM1 full length +VMN 0.05 mM, NAD […] alone or + free base) was 210.1 ±14.4 mU/mg. The “rate (relative fold)” value (hSARM1 full length [4]; hSARM1 full length +VMN 0.05 mM, NAD […], relative to NAD alone without trigger) was 9.63 ±0.660 fold, the “cyclization, share of products” value (hSARM1 full length [4]; [9]) was 0.64% and the “hydrolysis, share of products” value (hSARM1 full length [4]; [9]) was 99.36%. The rate (hSARM1 full length [4]; hSARM1 full length +VMN 0.05 mM, NADP […] alone or + free base) was 138.3 ±1.72 mU/mg, the “rate (relative fold)” value (hSARM1 full length [4]; hSARM1 full length +VMN 0.05 mM, NADP […], relative to NADP alone without trigger) was 9.41 ±0.117 fold and the “increase of all hSARM1 activities by trigger (plateau)” value (hSARM1 full length [4]) was 8- to 10 fold.

`[Cu+2]` [copper] was tested, and the “effect of metal ion on activity” value (hCD38 [1]; hCD38) was “clear inhibition”, the “effect of metal ion on activity” value (hSARM1 full length [2]) was “clear inhibition” and the “effect of metal ion on activity” value [3] was “clear inhibition”.

`[Mg]` [magnesium] was tested, and the “effect of metal ion on activity” value (hCD38 [1]; hCD38) was “no effect”, the “effect of metal ion on activity” value (hSARM1 full length [2]) was “no effect” and the “effect of metal ion on activity” value [3] was “no effect”.

In the case of `[Zn+2]` [zinc], the “effect of metal ion on activity” value (hCD38 [1]; hCD38) is reported as “clear inhibition”, the “effect of metal ion on activity” value (hSARM1 full length [2]) is reported as “clear inhibition” and the “effect of metal ion on activity” value [3] is reported as “clear inhibition”.

For `NC(=O)c1ccc[n+]([C@H]2O[C@H](COP(=O)([O-])OP(=O)(O)OC[C@H]3O[C@@H](n4cnc5c(N)ncnc54)[C@H](O)[C@@H]3O)[C@@H](O)[C@H]2O)c1` [αNAD, alpha-NAD], the “use as substrate (consumption rate)” value (hCD38 [1]; hCD38, 25°C) was “no activity”, the “use as substrate (consumption rate)” value (hSARM1 full length [2]) was “no activity” and the “use as substrate (consumption rate)” value [3] was “no activity”.

In the case of “nicotinamide adenine dinucleotide phosphate [NADP]”, the rate (hCD38 [5]) is reported as 3521 ±605 mU/mg, the Vmax (hCD38 [1]; hCD38, substrate as labelled) is reported as 4376 ± 24.1 mU/mg and the Km (hCD38 [1]; hCD38, substrate as labelled, 25°C, pH 7.5) is reported as 11.7 ± 0.88 µM. For the same compound, the Km ([3]; substrate as labelled) was 384 ± 0.17 µM and the Vmax ([3]; substrate as labelled) was 20,043 ± 724 mU/mg.

For “nicotinic acid adenine dinucleotide phosphate [NaADP]”, the “use as substrate (consumption rate)” value (hCD38 [1]; hCD38, 25°C) was “negligible usage”, the “use as substrate (consumption rate)” value (hSARM1 full length [2]) was “negligible usage” and the “use as substrate (consumption rate)” value [3] was “negligible usage”.
